Where two headings read alike, the source gives them in different places.

In test [1] the test system is CHO2 (CHO-DG44) cells producing Rituximab. The test can be described thus: Fed-batch shake flask comparison of iron carriers in basal medium 6.2a (Example 7). It counts as cell-based, Chinese hamster. The method, then:
Basal medium 6.2a is a precursor medium that is almost identical to basal medium 6.2 except for additionally comprising some non-essential cofactors and nucleotides and containing no succinic acid, putrescine at only 4.8 mg/l and a total amino acid concentration of 40 mM instead of 44 mM. Further Glutamine was added at a lower amount resulting in a ratio relative to isoleucine of 37.42.
Feed medium 6.2a is a precursor medium that is almost identical to feed medium 6.2 except for additionally comprising some non-essential cofactors and nucleotides and slightly higher sodium bicarbonate and containing putrescine at only 33.02 mg/l and a total amino acid concentration of 511 mM instead of 508 mM. Further alanine was additionally present in the medium with a ratio relative to isoleucine of 0.15.
Experiments were performed in duplicates (N=2).

Test [2] shares this test system. The settings on record: for product titer: feed medium 2 with 0.25 g/l iron citrate.
Protocol: Cell concentrations and cell viabilities were determined by the trypan blue exclusion method using a CEDEX (Type 5.00, version 2.2) automated cell analyzer (Roche Innovatis, Bielefeld, Germany). The concentrations of produced recombinant proteins in the medium, such as IgG antibodies were quantified by a Konelab 60i (Thermo Scientific, Dreieich, Germany) analyzer based on photometrical methods or by the use of a HPLC method. The Konelab 60i instrument was also used for the quantification of metabolites such as glucose, lactic acid (lactate), glutamine, glutamate, and ammonium in the cell culture supernatants. Amino acid concentrations were determined by use of a GC 6890N/FID gas chromatograph (Agilent Technologies GmbH & Co.KG, Waldbronn, Germany). Amino acid analysis was performed by the EZ-faast protocol from Phenomenex (Aschaffenburg, Germany). Osmolarity profiles were analyzed by an osmomat auto device (Gonotec GmbH, Berlin, Germany). This method is based on the cryoscopic freezing point of a particular solution, which is proportional to the amount of dissolved particles. Dissolved carbon dioxide pCO2, dissolved oxygen pO2 and pH were determined on a daily basis with a Rapidlab 248/348 instrument (Siemens Healthcare Diagnostics GmbH, Eschborn, Germany).
The experiment was performed in 250 ml shake flasks with a starting volume of 60 ml.
Shake flasks were incubated at 37° C. in an incubator (10% CO2 atmosphere was provided from day 0 to 3 followed by 5% CO2 for one day and 0% CO2 until the end of the cultivation). Feeding solution was added every day at a feed rate of 30 ml/L/d starting on day two. Glucose was fed on demand to maintain the actual glucose concentration between 2-4 g/l over the cultivation period. Total cells, viable cells, viability, product concentration, glucose concentration, lactic acid concentration, ammonium concentration and osmolarity were measured every second day until the end of cultivation to monitor and control the experimental progress. Experiments were performed in duplicates (N=2).
The test system of test [3] is CHO2 (CHO-DG44) Rituximab cells. Particulars: 0.1 g/l (so in the source) in RPMI based basal medium 3.1; feed medium 2 with 0.25 g/l iron citrate; 2 L bioreactor.
Protocol: Cell concentrations and cell viabilities were determined by the trypan blue exclusion method using a CEDEX (Type 5.00, version 2.2) automated cell analyzer (Roche Innovatis, Bielefeld, Germany). The concentrations of produced recombinant proteins in the medium, such as IgG antibodies were quantified by a Konelab 60i (Thermo Scientific, Dreieich, Germany) analyzer based on photometrical methods or by the use of a HPLC method. The Konelab 60i instrument was also used for the quantification of metabolites such as glucose, lactic acid (lactate), glutamine, glutamate, and ammonium in the cell culture supernatants. Amino acid concentrations were determined by use of a GC 6890N/FID gas chromatograph (Agilent Technologies GmbH & Co.KG, Waldbronn, Germany). Amino acid analysis was performed by the EZ-faast protocol from Phenomenex (Aschaffenburg, Germany). Osmolarity profiles were analyzed by an osmomat auto device (Gonotec GmbH, Berlin, Germany). This method is based on the cryoscopic freezing point of a particular solution, which is proportional to the amount of dissolved particles. Dissolved carbon dioxide pCO2, dissolved oxygen pO2 and pH were determined on a daily basis with a Rapidlab 248/348 instrument (Siemens Healthcare Diagnostics GmbH, Eschborn, Germany). […]

The molecule `O=P([O-])([O-])OP(=O)([O-])[O-].O=P([O-])([O-])OP(=O)([O-])[O-].O=P([O-])([O-])OP(=O)([O-])[O-].[Fe+3].[Fe+3].[Fe+3].[Fe+3]` [iron pyro phosphate] showed a product titer in test [1] (iron carrier 1.3 g/L in basal medium 6.2a, feed medium 6.2a without iron choline citrate) of 2.26 g/L.

In the case of `O=P([O-])([O-])[O-].[Fe+3]` [iron phosphate], the product titer in test [1] (iron carrier 0.3 g/L in basal medium 6.2a, feed medium 6.2a without iron choline citrate) came to 2.29 g/L.

For `C[N+](C)(C)CCO.O=C([O-])CC(O)(CC(=O)[O-])C(=O)[O-].[Fe+2]` [iron choline citrate], the “osmolarity of the culture compared to equimolar iron citrate (in words)” value in test [2] (equimolar application, data not shown) is recorded as “lower osmolarity values”.

Turning to iron citrate, the product titer in test [3] is reported as 0.200 g/L; in test [2] (0.1 g/L in basal medium 3.1), 0.184 g/L; in test [2] (0.2 g/L in basal medium 3.1) it was 0.200 g/L; in test [2] (1.0 g/L in basal medium 3.1), 0.201 g/L; in test [1] (parallel experiment: 0.1 g/L in basal medium 6.2a, feed medium 6.2a with 0.25 g/l iron citrate), 2.38 g/L. This molecule also gave a titer in test [2] (1.0 g/L in basal medium 3.1) of 201 mg/L.

The values above are taken from US11505784B2, “Cell culture medium” (BOEHRINGER INGELHEIM INTERNATIONAL GMBH, priority 2015, dated 2022).
